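96-well plates; 48 h exposure; 5 concentrations. Endpoints by linear interpolation between flanking doses. Not reached: highest tested concentration assigned. GI50 = concentration required for 50% inhibition of growth. TGI is the concentration that stops growth completely.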
Experiments:
Assay in all cases: NCI tumour cell line growth inhibition, 48 h
ACHN renal = test system: ACHN renal
SF-295 CNS = test system: SF-295 CNS
UACC-257 melanoma = test system: UACC-257 melanoma
DU-145 prostate = test system: DU-145 prostate
U251 CNS = test system: U251 CNS
OVCAR-4 ovarian = test system: OVCAR-4 ovarian
TK-10 renal = test system: TK-10 renal
RXF 393 renal = test system: RXF 393 renal
786-0 renal = test system: 786-0 renal
HS 578T breast = test system: HS 578T breast
PC-3 prostate = test system: PC-3 prostate
SK-MEL-5 melanoma = test system: SK-MEL-5 melanoma
MDA-MB-435 = test system: MDA-MB-435
A498 renal = test system: A498 renal
NCI-H226 lung = test system: NCI-H226 lung
HOP-62 NSCLC = test system: HOP-62 NSCLC
SK-OV-3 ovarian = test system: SK-OV-3 ovarian
M14 melanoma = test system: M14 melanoma
OVCAR-3 ovarian = test system: OVCAR-3 ovarian
BT-549 breast = test system: BT-549 breast
K-562 leukemia = test system: K-562 leukemia
UACC-62 melanoma = test system: UACC-62 melanoma
SW-620 colon = test system: SW-620 colon
CAKI-1 renal = test system: CAKI-1 renal
MCF7 breast = test system: MCF7 breast
HL-60(TB) leukemia = test system: HL-60(TB) leukemia
NCI-H23 lung = test system: NCI-H23 lung
EKVX NSCLC = test system: EKVX NSCLC
HCT-15 colon = test system: HCT-15 colon
NCI-H460 lung = test system: NCI-H460 lung
SF-268 CNS = test system: SF-268 CNS
COLO 205 colon = test system: COLO 205 colon
SN12C renal = test system: SN12C renal
OVCAR-5 ovarian = test system: OVCAR-5 ovarian
UO-31 renal = test system: UO-31 renal
RPMI-8226 leukemia = test system: RPMI-8226 leukemia
SF-539 CNS = test system: SF-539 CNS
HOP-92 NSCLC = test system: HOP-92 NSCLC
A549 NSCLC = test system: A549 NSCLC
HCT-116 colon = test system: HCT-116 colon
OVCAR-8 ovarian = test system: OVCAR-8 ovarian
HCC-2998 colon = test system: HCC-2998 colon
MALME-3M melanoma = test system: MALME-3M melanoma
LOX IMVI melanoma = test system: LOX IMVI melanoma
CCRF-CEM leukemia = test system: CCRF-CEM leukemia
KM12 colon = test system: KM12 colon
MOLT-4 leukemia = test system: MOLT-4 leukemia
NCI/ADR-RES ovarian = test system: NCI/ADR-RES ovarian
SR leukemia = test system: SR leukemia
SK-MEL-28 melanoma = test system: SK-MEL-28 melanoma
IGROV1 ovarian = test system: IGROV1 ovarian
SNB-75 CNS = test system: SNB-75 CNS
NCI-H522 lung = test system: NCI-H522 lung
MDA-MB-231 breast = test system: MDA-MB-231 breast
HT29 colon = test system: HT29 colon
SK-MEL-2 melanoma = test system: SK-MEL-2 melanoma
SNB-19 CNS = test system: SNB-19 CNS

Cc1cc(N2CCCCCC2)nc(NC2CCCC(Nc3ccnc4cc(Cl)ccc34)C2)n1 (stereo not given) gave a GI50 (ACHN renal) of 1540 nM, a TGI (ACHN renal) of 2870 nM and a GI50 (SF-295 CNS) of 1450 nM. For the same molecule, the TGI (SF-295 CNS) was 2840 nM, the GI50 (UACC-257 melanoma) was 2170 nM and the TGI (UACC-257 melanoma) was 3700 nM. For the same molecule, the GI50 (DU-145 prostate) was 1610 nM, the TGI (DU-145 prostate) was 2990 nM and the GI50 (U251 CNS) was 1470 nM. The TGI (U251 CNS) was 2780 nM, the GI50 (OVCAR-4 ovarian) was 1560 nM and the TGI (OVCAR-4 ovarian) was 3250 nM. It also gave a GI50 (TK-10 renal) of 1990 nM, a TGI (TK-10 renal) of 3540 nM and a GI50 (RXF 393 renal) of 1200 nM. It also gave a TGI (RXF 393 renal) of 2580 nM, a GI50 (786-0 renal) of 1270 nM and a TGI (786-0 renal) of 2600 nM. For the same molecule, the GI50 (HS 578T breast) was 1800 nM, the TGI (HS 578T breast) was 4420 nM and the GI50 (PC-3 prostate) was 1630 nM. For the same molecule, the TGI (PC-3 prostate) was 3200 nM, the GI50 (SK-MEL-5 melanoma) was 1670 nM and the TGI (SK-MEL-5 melanoma) was 3040 nM. It also gave a GI50 (MDA-MB-435) of 1630 nM, a TGI (MDA-MB-435) of 3080 nM and a GI50 (A498 renal) of 1440 nM. It also gave a TGI (A498 renal) of 2860 nM, a GI50 (NCI-H226 lung) of 2010 nM and a TGI (NCI-H226 lung) of 3760 nM. It also gave a GI50 (HOP-62 NSCLC) of 1630 nM, a TGI (HOP-62 NSCLC) of 3150 nM and a GI50 (SK-OV-3 ovarian) of 1770 nM. The TGI (SK-OV-3 ovarian) was 3230 nM, the GI50 (M14 melanoma) was 1190 nM and the TGI (M14 melanoma) was 2740 nM. It also gave a GI50 (OVCAR-3 ovarian) of 1760 nM, a TGI (OVCAR-3 ovarian) of 3390 nM and a GI50 (BT-549 breast) of 1440 nM. It also gave a TGI (BT-549 breast) of 3090 nM.
For COc1ccc(N(CC(=O)NCCC[Te]c2ccccc2)C(=O)CCSC2=C(C)C(=O)c3ccccc3C2=O)cc1, the GI50 (ACHN renal) was 1570 nM, the TGI (ACHN renal) was 3470 nM and the GI50 (SF-295 CNS) was 232 nM. For the same molecule, the TGI (SF-295 CNS) was 704 nM, the GI50 (UACC-257 melanoma) was 2560 nM and the TGI (UACC-257 melanoma) was 6510 nM. For the same molecule, the GI50 (DU-145 prostate) was 1440 nM, the TGI (DU-145 prostate) was 3240 nM and the GI50 (U251 CNS) was 553 nM. For the same molecule, the TGI (U251 CNS) was 2320 nM, the GI50 (K-562 leukemia) was 2480 nM and the TGI (K-562 leukemia) was greater than 22700 nM. For the same molecule, the GI50 (UACC-62 melanoma) was 1820 nM, the TGI (UACC-62 melanoma) was 4310 nM and the GI50 (SW-620 colon) was 2410 nM. The TGI (SW-620 colon) was 8030 nM, the GI50 (CAKI-1 renal) was 2250 nM and the TGI (CAKI-1 renal) was 6240 nM. For the same molecule, the GI50 (OVCAR-4 ovarian) was 2950 nM, the TGI (OVCAR-4 ovarian) was 11200 nM and the GI50 (MCF7 breast) was 585 nM. The TGI (MCF7 breast) was 11300 nM, the GI50 (HL-60(TB) leukemia) was 2970 nM and the TGI (HL-60(TB) leukemia) was greater than 26100 nM. The GI50 (NCI-H23 lung) was 623 nM, the TGI (NCI-H23 lung) was 2830 nM and the GI50 (EKVX NSCLC) was 326 nM. It also gave a TGI (EKVX NSCLC) of 2980 nM, a GI50 (TK-10 renal) of 3250 nM and a TGI (TK-10 renal) of 8010 nM. The GI50 (HCT-15 colon) was 673 nM, the TGI (HCT-15 colon) was 3210 nM and the GI50 (RXF 393 renal) was 2070 nM. The TGI (RXF 393 renal) was 4470 nM, the GI50 (NCI-H460 lung) was 310 nM and the TGI (NCI-H460 lung) was 948 nM. For the same molecule, the GI50 (786-0 renal) was 2320 nM, the TGI (786-0 renal) was 4910 nM and the GI50 (HS 578T breast) was 1560 nM. For the same molecule, the TGI (HS 578T breast) was 6690 nM, the GI50 (PC-3 prostate) was 656 nM and the TGI (PC-3 prostate) was 2910 nM. It also gave a GI50 (SF-268 CNS) of 1110 nM, a TGI (SF-268 CNS) of 3990 nM and a GI50 (COLO 205 colon) of 1990 nM. For the same molecule, the TGI (COLO 205 colon) was 3640 nM, the GI50 (SN12C renal) was 840 nM and the TGI (SN12C renal) was 3770 nM. The GI50 (OVCAR-5 ovarian) was 498 nM, the TGI (OVCAR-5 ovarian) was 1880 nM and the GI50 (UO-31 renal) was 437 nM. It also gave a TGI (UO-31 renal) of 2450 nM, a GI50 (SK-MEL-5 melanoma) of 1560 nM and a TGI (SK-MEL-5 melanoma) of 2960 nM. For the same molecule, the GI50 (RPMI-8226 leukemia) was 1020 nM, the TGI (RPMI-8226 leukemia) was 5660 nM and the GI50 (MDA-MB-435) was 2670 nM. The TGI (MDA-MB-435) was 8110 nM, the GI50 (SF-539 CNS) was 1880 nM and the TGI (SF-539 CNS) was 3650 nM. It also gave a GI50 (HOP-92 NSCLC) of 1720 nM, a TGI (HOP-92 NSCLC) of 4440 nM and a GI50 (A549 NSCLC) of 302 nM. It also gave a TGI (A549 NSCLC) of 1070 nM, a GI50 (HCT-116 colon) of 406 nM and a TGI (HCT-116 colon) of 1720 nM. The GI50 (OVCAR-8 ovarian) was 722 nM, the TGI (OVCAR-8 ovarian) was 6060 nM and the GI50 (A498 renal) was 1960 nM. It also gave a TGI (A498 renal) of 4610 nM, a GI50 (HCC-2998 colon) of 1670 nM and a TGI (HCC-2998 colon) of 4440 nM. For the same molecule, the GI50 (MALME-3M melanoma) was 2250 nM, the TGI (MALME-3M melanoma) was 4510 nM and the GI50 (LOX IMVI melanoma) was 1500 nM. It also gave a TGI (LOX IMVI melanoma) of 3540 nM, a GI50 (CCRF-CEM leukemia) of 508 nM and a GI50 (KM12 colon) of 702 nM. The TGI (KM12 colon) was 2180 nM, the GI50 (MOLT-4 leukemia) was 911 nM and the GI50 (NCI/ADR-RES ovarian) was 1460 nM. It also gave a TGI (NCI/ADR-RES ovarian) of 6160 nM, a GI50 (SR leukemia) of 498 nM and a TGI (SR leukemia) greater than 100000 nM. The GI50 (HOP-62 NSCLC) was 582 nM, the TGI (HOP-62 NSCLC) was 1580 nM and the GI50 (SK-OV-3 ovarian) was 2140 nM. It also gave a TGI (SK-OV-3 ovarian) of 4670 nM, a GI50 (SK-MEL-28 melanoma) of 2480 nM and a TGI (SK-MEL-28 melanoma) of 5870 nM. It also gave a GI50 (IGROV1 ovarian) of 888 nM, a TGI (IGROV1 ovarian) of 2350 nM and a GI50 (M14 melanoma) of 1170 nM. For the same molecule, the TGI (M14 melanoma) was 2990 nM, the GI50 (OVCAR-3 ovarian) was 1440 nM and the TGI (OVCAR-3 ovarian) was 3190 nM. It also gave a GI50 (SNB-75 CNS) of 1170 nM, a TGI (SNB-75 CNS) of 7640 nM and a GI50 (NCI-H522 lung) of 948 nM. It also gave a TGI (NCI-H522 lung) of 3590 nM, a GI50 (BT-549 breast) of 508 nM and a TGI (BT-549 breast) of 3430 nM. It also gave a GI50 (MDA-MB-231 breast) of 1220 nM, a TGI (MDA-MB-231 breast) of 3460 nM and a GI50 (HT29 colon) of 1950 nM. It also gave a TGI (HT29 colon) of 7030 nM, a GI50 (SK-MEL-2 melanoma) of 2310 nM and a TGI (SK-MEL-2 melanoma) of 5490 nM. It also gave a GI50 (SNB-19 CNS) of 2910 nM and a TGI (SNB-19 CNS) of 12100 nM.
